Assay results: patent EP3693362B1, “PARASITIC PLANT GERMINATION REGULATOR” (National University Corporation Tokai National Higher …, priority 2017, dated 2019)

Tests used:
Format in all cases: in vivo
Striga hermonthica = experiment: Parasitic plant germination induction test (Striga hermonthica seeds); settings: in the dark for 2 days; for Germination rate 0.1 nM: compound concentration 0.1 nM; for Germination rate 1 nM: compound concentration 1 nM; for Germination rate 10 nM: compound concentration 10 nM
Procedure: (§1) A parasitic plant germination induction test was conducted using the compounds synthesized in Example 1 as test compounds. The seeds of a parasitic plant (Striga hermonthica, Orobanche minor, or Phelipanche aegyptiaca) were suspended in sterilized ultrapure water, and this was dispensed in an amount of 100 µL each (containing about 20 seeds) into a 96-well plate. The test compounds or control compounds (Comparison Compound 1 or synthetic Strigolactone (GR^24: Comparison Compound 2)) dissolved in DMSO were individually added thereto to a final concentration of these compounds of 10 nM to 1 fM (1 × 10^-8 to 1 × 10^-15 M), and allowed to stand in the dark for 2 days. The presence or absence of germination was observed using a microscope, and the germination rate (i.e., number of germinated seeds/total number of seeds) was measured. The higher the germination rate in the parasitic plant germination induction test, or the higher the germination rate at lower concentration, the higher the Striga germination inducing activity.
(§2) In Tables 1 to 6, the concentrations (10 nM, 1 nM, and 0.1 nM) represent compound concentrations. In Tables 1-6, the evaluation criteria for the compounds are as follows: • ++: germination rate of 20% or more • +: germination rate of 5% or more and less than 20% • -: germination rate of less than 5% Table 1

Orobanche minor = experiment: Parasitic plant germination induction test (Orobanche minor seeds); settings: in the dark for 2 days
Procedure: as §1, §2

Phelipanche aegyptiaca = experiment: Parasitic plant germination induction test (Phelipanche aegyptiaca seeds); settings: in the dark for 2 days
Procedure: as §1, §2

Compound | Germination rate 0.1 nM (Striga hermonthica) | Germination rate 1 nM (Striga hermonthica) | Germination rate 10 nM (Striga hermonthica) | Germination rate 0.1 nM (Orobanche minor; compound concentration 0.1 nM) | Germination rate 1 nM (Orobanche minor; compound concentration 1 nM) | Germination rate 10 nM (Orobanche minor; compound concentration 10 nM) | Germination rate 1 nM (Phelipanche aegyptiaca; compound concentration 1 nM) | Germination rate 10 nM (Phelipanche aegyptiaca; compound concentration 10 nM)
CCCCOc1ccc(S(=O)(=O)N2CCN(C(=O)OC3C=C(C)C(=O)O3)CC2)cc1 (centres unmarked) [Compound 1] | ++ (germination rate of 20% or more) | ++ (germination rate of 20% or more) | ++ (germination rate of 20% or more) | - (germination rate of less than 5%) | ++ (germination rate of 20% or more) | ++ (germination rate of 20% or more) | - (germination rate of less than 5%) | + (germination rate of 5% or more and less than 20%)
CC1=CC(OC(=O)NCc2ccccc2)OC1=O (centres unmarked) [Comparison Compound 1, reference compound] | - (germination rate of less than 5%) | - (germination rate of less than 5%) | - (germination rate of less than 5%) |  |  |  |  | 
CCCCOc1ccc(S(=O)(=O)N2CCN(C(=O)OC3C=CC(=O)O3)CC2)cc1 (centres unmarked) [Compound 13] | + (germination rate of 5% or more and less than 20%) | ++ (germination rate of 20% or more) | ++ (germination rate of 20% or more) |  |  |  |  | 
